Source: patent US9261498B2, “Biomarker for sensitivity to mTOR inhibitor therapy in kidney cancer” (The Regents of the University of California, priority 2005, dated 2016)
Entries after “also recorded” stand apart in the source; their conditions may differ.

Test system: HIF-1α
Test: Immunoblot of HIF-1α protein in VHL knockdown RCC cells
Type: cell-based, human
Conditions: 1 and 10 nM CCI-779, 24 hours
Method: (a) SN12C-CSCG and SN12C-VHLshRNA cell were treated with vehicle, 1 nM or 10 nM of CCI-779 and lysed 24 hours later. Lysates were subjected to immunoblotting for HIF-1α, HIF-2α, GLUT-1, CA-IX, p-eIF4G, p-S6 Ribosomal protein. Equal protein loading was verified using anti-β-actin antibody. (b) HIF-1α expression was probed by immunoblotting in SN12C-MSCV-5′TOP-HIF-1α cDNA (left panel) and SN12C-MSCV-HIF-1α cDNA (tight panel) post 24 hours of vehicle, 1 nM or 10 nM of CCI-779.
Cells and xenograft tumors were lysed in ECB lysis buffer (see, e.g. Kondo et al., Cancer Cell 1, 237-46 (2002)) or high-detergent buffer (2% SDS), (see, e.g. Chen et al., Nat Med 10, 33-9 (2004)), respectively, supplemented with complete protease and phosphatase inhibitor cocktails (Calbiochem). […] Bound antibody was detected using enhanced chemiluminescence (ECL, Amersham). For VEGF ELISA quantification, cells were plated in 6 well plates (1×10^5 per well). […] Thirty-six hours later, VEGF ELISA (R&D Systems) was performed according to the manufacturer's instructions, using a Fisher Plate reader. […]
Cells and xenograft tumors were lysed in ECB lysis buffer or high-detergent buffer (2% SDS), respectively, supplemented with complete protease and phosphatase inhibitor cocktails (Calbiochem). […] Bound antibody was detected using enhanced chemiluminescence (ECL, Amersham). […]

CO[C@H]1C[C@@H]2CC[C@@H](C)[C@@](O)(O2)C(=O)C(=O)N2CCCC[C@H]2C(=O)O[C@H]([C@H](C)C[C@@H]2CC[C@@H](OC(=O)C(C)(CO)CO)[C@H](OC)C2)CC(=O)[C@H](C)/C=C(\C)[C@@H](O)[C@@H](OC)C(=O)[C@H](C)C[C@H](C)/C=C/C=C/C=C/1C [CCI-779] was tested, and the HIF-1α protein levels was “dramatically reduced; also recorded: reduction; also recorded: decrease”.
